Test system: breast cancer cell lines
Assay: sulforhodamine B (SRB) drug sensitivity assay in breast cancer cell line panel
Assay type: cell-based
Details: panel of 52 breast cancer cell lines, 5 days of treatment, FIG. 1
Source text: A breast cancer cell line panel, previously described (Marcotte et al., Cell, 164(1-2), 2016293-309), was assembled for in vitro drug sensitivity profiling, and mated with available gene expression data. The RNA-seq reads were aligned to the Ensembl Genome Reference Consortium release GRCh38 using Kallisto pipeline (Bray et al., Nature Biotechnology, 201634(5), 525-527). Expression values were computed as log2(TPM+0.001), where TPM represents the number of transcripts per million mapped reads units which control for sequence length and sequencing depth. The status of SKA3 expression (high vs low expression) can be determined from a reference population such as the breast cancer TCGA cohort (see FIG. 6).
Response of breast cancer cell lines to compound CFI-402257 (a TTK inhibitor, see the structure below) was evaluated using sulforhodamine B (SRB) assays. The compound was synthesized as previously described (See Liu et al., ACS Medicinal Chemistry Letters, 20167(7), 671-675).
Cells were seeded in 96-well plates and treated with serial drug dilutions. After 5 days of treatment, cells were fixed, stained with SRB, solubilized, and absorbance quantified on a spectrophotometer. For all drug response assays, cell viabilities are reported as the proportion of growth in drug relative to DMSO treated conditions. […]

## Cc1cc(-c2cnn3c(NC[C@H]4C[C@@](C)(O)C4)cc(Oc4cccnc4)nc23)ccc1C(=O)NC1CC1 [CFI-402257]
  in vitro sensitivity (area above the drug dose-response curve, AAC): Differential in vitro sensitivity

Source: patent US20210290624A1, “METHODS OF TREATING CANCERS CHARACTERIZED BY A HIGH EXPRESSION LEVEL OF SPINDLE AND KINETOCHORE ASSOCIATED COMPLEX SUBUNIT 3 (SKA3) GENE” (UNIVERSITY HEALTH NETWORK, priority 2018, published 2021)
